Laboratory results taken from publication PMC7998731, “Pharmacokinetic Characterization of Supinoxin and Its Physiologically Based Pharmacokinetic Modeling in Rats” (Pharmaceutics, 2021).
Read-outs that look alike come from different tables or passages of the source.

Key:
[1] = In vivo pharmacokinetic study, intravenous administration to rats; conditions: rat, plasma; for concentration at 0.083 h / concentration at 0.25 h / concentration at 0.5 h / concentration at 1 h / concentration at 3 h / concentration at 7 h / concentration at 10 h / concentration at 24 h: fasted male SD rats; for concentration at 24 h: BQL treated as 0; for AUC(0-inf) / AUC(0-t) / MRT / clearance / half-life / Vd: male
Procedure: Male Sprague Dawley (SD) rats, 6–7 weeks old, were purchased from Orient Bio Inc. (Seongnam-si, Korea) and were used in all in vivo studies. The animals were maintained at a temperature of 20–26 °C with a 12 h light/dark cycle and a relative humidity of 40–60%. The experimental protocols involving the animals used in this study were reviewed by the Animal Care and Use Committee of Chungnam National University (CNU-00576, Daejeon, Korea; approval date: 13 March 2015).
Supinoxin was dissolved in a vehicle (10% DMSO, 10% Tween 80, 40% PEG 400, and 40% saline). In single doses, the administration routes involved an intravenous bolus via the tail vein (n = 4–5) and an oral gavage dose (n = 4–5). The dosing volume was 2 mL per kg body weight, and the dosing range was 0.5, 1, and 5 mg/kg. Blood samples (200 µL) were collected from the jugular vein at 0.083 (intravenous only), 0.25, 0.5, 1, 3, 7, 10, and 24 h after dosing, using a heparinized syringe to ensure anticoagulation. During blood sampling, rats were placed in a restrainer (Nagai-CFS-1S; NMS, Tokyo, Japan). For the separation of plasma fractions, all blood samples were centrifuged at 17,600× g for 5 min. The samples were stored at −20 °C until analysis. When obtaining tissue concentrations to calculate the tissue-to-plasma partition ratio was necessary, samples of nine tissues (i.e., adipose, heart, muscle, kidney, brain, liver, spleen, gut, and lung) were collected at 0.33, 1, 3, 7, and 24 h after 5 mg/kg intravenous administration of supinoxin (n = 3).
The peak concentration (Cmax) and the time to reach Cmax (Tmax) were obtained directly from individual plasma concentration–time profiles. Linear trapezoidal rule was used to calculate the areas under the plasma concentration–time curve (AUC) and the first moment curve (AUMC), while the terminal half-life (T1/2) was calculated using 0.693/λ, where λ represents the slope of the log-transformed concentration–time profiles of the terminal phase. The systemic clearance (CL), mean residence time (MRT), and the volume of the distribution at the steady state (Vss) were calculated as follows: dose/AUC, AUMC/AUC, and MRT·CL, respectively. To calculate the absolute oral bioavailability (F) we divided the AUC obtained following oral administration by that obtained following intravenous administration of the respective dose.
To determine supinoxin concentrations in plasma, feces, and urine, we used a previously reported LC–MS/MS assay using DGG-200064 as an internal standard (IS). Briefly, an aliquot (50 μL) of IS solution (concentration 100 ng/mL) was added to 50 μL of plasma, feces, or urine sample, following which 400 μL of acetonitrile containing 0.1% formic acid was added. After vigorous vortexing for 10 min, the extract was centrifuged at 17,600 rpm for 10 min at 4 °C, and the supernatant was placed in an autosampler vial. An aliquot of 5 µL was then injected into the analytical column for chromatographic separation; the analytical system consisted of a 1200 series HPLC system (Applied Biosystems, Foster City, CA, USA) equipped with a turbo-electrospray interface in positive ionization mode.

[2] = cited from earlier work; for Plasma concentration, Mean: fasted male SD rats, oral 1 mg/kg, ref 15 (Table 2 footnote)
[3] = Transport of supinoxin in Caco-2 cells (bidirectional permeability); type: in vitro ADME; conditions: human
Procedure: The Caco-2 intestinal epithelial cell line (ATCC® HTB-37™) purchased from American Type Culture Collection (ATCC, Manassas, VA, USA) was cultured and maintained in Dulbecco’s modified Eagle medium (DMEM) containing 10% fetal bovine serum, 100 U/mL penicillin, and 0.1 mg/mL streptomycin under humidified atmosphere of air containing 5% CO2 at 37 °C. Caco-2 cells were seeded at a density of 6 × 10^4 cells/cm^2 onto polyethylene membranes of transwell plates (Corning Costar, Cambridge, MA, USA). The medium was replaced on alternate days after seeding, and cell monolayers were used for the transport assay after approximately 21 days of culture. Trans-epithelial electrical resistance (TEER) values of the Caco-2 monolayers were measured with an EVOM epithelial tissue voltmeter (World Precision Instruments, Sarasota, FL, USA), and cells with TEER greater than 300 Ω were used for the experiments. Cell monolayers were first rinsed three times with transport buffer (Hank’s balanced salt solution supplemented with 10 mM HEPES) and preincubated for 30 min at 37 °C. To measure the bidirectional transport of the compound, a transport buffer containing 1 µM supinoxin was added to the respective donor compartments (the apical and basolateral sides for absorptive and secretory transport assays, respectively). Samples (200 µL) were collected at 30, 60, 90, and 120 min, and an identical volume of fresh buffer was replenished. The samples were then subjected to LC–MS/MS analysis and concentrations of the samples were determined. After the final sampling from both compartments, we measured the TEER of the monolayers to ensure no possible adverse effects induced by the experimental procedures and then estimated the apparent permeability coefficient of supinoxin from the compound’s time-dependent accumulation (dQ/dt) in the receiver compartments using the following equation: Papp = dQ/dt × 1/(A × C0)(1) where dQ/dt is the rate of transport, A is the surface area of the filter, and C0 is the initial concentration in the donor chamber.

[4] = Sprague-Dawley, intravenous 0.5 mg/kg
[5] = Sprague-Dawley, intravenous 5 mg/kg
[6] = Sprague Dawley, rats, intravenous, 0.5 mg/kg
[7] = Sprague Dawley, rats, intravenous, 5 mg/kg
[8] = rats, oral, 1 mg/kg, Jeong, J.-W. et al., 2017

## COc1cc(OC)cc(N2CCN(C(=O)Nc3nc4cc(F)ccc4nc3OC)CC2)c1 [supinoxin, 1-(3,5-Dimethoxyphenyl)-4-[(6-Fluoro-2-Methoxyquinoxalin-3-yl) Aminocarbonyl] Piperazine]
[1]; [4]
  concentration at 0.083 h: 313 ng/mL
  concentration at 0.25 h: 255 ng/mL
  concentration at 0.5 h: 206 ng/mL
  concentration at 1 h: 140 ng/mL
  concentration at 3 h: 79.3 ng/mL
  concentration at 7 h: 20.8 ng/mL
  concentration at 10 h: 8.2 ng/mL
  concentration at 24 h: 0.3 ng/mL
[1]; [5]
  concentration at 0.083 h: 2380 ng/mL
  concentration at 0.25 h: 1640 ng/mL
  concentration at 0.5 h: 1310 ng/mL
  concentration at 1 h: 907 ng/mL
  concentration at 3 h: 600 ng/mL
  concentration at 7 h: 234 ng/mL
  concentration at 10 h: 130 ng/mL
  concentration at 24 h: 5.8 ng/mL
[1]; [6]
  AUC(0-inf): 727 ± 177 ng·h/mL
  AUC(0-t): 715 ± 180 ng·h/mL
  MRT: 2.92 ± 0.65 h
[1]; Sprague Dawley, rats, intravenous, 0.5 mg/kg, read-out: CL (converted)
  clearance: 11.9 mL/min/kg
[1]; Sprague Dawley, rats, intravenous, 0.5 mg/kg, read-out: T1/2 (converted)
  half-life: 2.54 ± 0.83 h
[1]; [7]
  AUC(0-inf): 6130 ± 1750 ng·h/mL
  AUC(0-t): 6090 ± 1760 ng·h/mL
  MRT: 4.07 ± 1.37 h
[1]; Sprague Dawley, rats, intravenous, 5 mg/kg, read-out: CL (converted)
  clearance: 14.4 mL/min/kg
[1]; Sprague Dawley, rats, intravenous, 5 mg/kg, read-out: T1/2 (converted)
  half-life: 2.8 ± 0.71 h
[1]; Sprague-Dawley, PBPK input parameter, Determined, from intravenous administration study, read-out: In vivo clearance (CLiv)
  clearance: 3.16 mL/min
[1]; Sprague-Dawley, rats, intravenous, 0.5 mg/kg, read-out: Vss
  Vd: 2.11 ± 0.803 L/kg
[1]; Sprague-Dawley, rats, intravenous, 5 mg/kg, read-out: Vss
  Vd: 3.5 ± 1.45 L/kg
[1]; Sprague-Dawley, rats, intravenous, range over doses 0.5–5 mg/kg, read-out: steady state volume of distribution
  Vd: 2.04 to 3.5 L/kg
[1]; Sprague-Dawley, rats, intravenous, range over doses 0.5–5 mg/kg, read-out: systemic clearance
  clearance: 11.5 to 14.4 mL/min/kg
[1]; Sprague-Dawley, rats, intravenous, range over doses 0.5–5 mg/kg, read-out: terminal half-life
  half-life: 2.54 to 2.8 h
[2]; 0.25 h
  Plasma concentration, Mean: 211.9 ng/mL
[2]; 0.5 h
  Plasma concentration, Mean: 233.6 ng/mL
[2]; 1 h
  Plasma concentration, Mean: 231.2 ng/mL
[2]; 3 h
  Plasma concentration, Mean: 122.2 ng/mL
[2]; 7 h
  Plasma concentration, Mean: 34.9 ng/mL
[2]; 10 h
  Plasma concentration, Mean: 13.7 ng/mL
[2]; 24 h, BQL treated as 0
  Plasma concentration, Mean: 0.3 ng/mL
[2]; [8]
  AUCinf: 1010 ± 420 ng·h/mL
  AUClast: 984 ± 407 ng·h/mL
  Cmax: 250 ± 93 ng/mL
  F (absolute oral bioavailability): 56.9 ± 23.7%
  MRT: 3.15 ± 1.26 h
  T1/2: 2.11 ± 0.91 h
  Tmax: 0.650 ± 0.337 h
[3]; Caco-2, Caco-2 cell monolayers, supinoxin 1 µM, read-out: apical to basolateral apparent permeability coefficient
  Papp A→B at 120 min, 1 µM: 18.5 ± 2.4 ×10⁻⁶ cm/s
[3]; Caco-2, PBPK input parameter, Determined, read-out: Caco-2 permeability
  Papp A→B at 120 min, 1 µM: 18.5 ×10⁻⁶ cm/s
[3]; Caco-2 cell monolayers
  efflux ratio at 120 min, 1 µM: 1.24
[3]; Caco-2 cell monolayers, supinoxin 1 µM, read-out: basolateral to apical apparent permeability coefficient
  Papp B→A at 120 min, 1 µM: 22.6 ± 1.8 ×10⁻⁶ cm/s
